Test system: HFF1 cell line (consisting of fibroblasts derived from human skin)
Assay: MTT cell viability assay
Format: cell-based
Settings: HFF1 cells, 5 hours incubation; carnosine alone 0.136 mM
Method: Trial design. The cell response of conjugate (1) in terms of cell viability was determined in vitro by performing the MTT assay (Mosmann T, J Immunol Methods 1983; 65:55-63) on the HFF1 cell line (consisting of fibroblasts derived from human skin). The cells were used at passages 20-23, cultured at 37°C and 5% CO2 in Dulbecco's Modified Eagle Medium (DMEM) with integrated glucose and added with FBS (1%). To conduct the MTT assay, the cells were plated in 96-well multiwell plates (7000 cells per well) in DMEM culture medium with integrated glucose and added with 1% FBS; after 48 hours they were treated with control medium, or with medium alternatively containing carnosine, conjugate (1) prepared as described in EXAMPLE 1, or complexes of conjugate (1) with Cu(II), for 5 hours of incubation at 37°C and 5% CO2. Each treatment was performed in triplicate. […] After removal of the liquid from each well and addition of DMSO (100 µl), the absorbance of the formazan salt (blue) produced by the cleavage reaction of the tetrazolium ring of MTT (yellow) by the mitochondrial enzyme succinate dehydrogenase present in the viable cells only was measured in a multiplate reader (Synergy™ 2 Multi-Mode Microplate Reader) at the wavelength of 570 nm. […]

NCCC(=O)N[C@@H](Cc1c[nH]cn1)C(=O)O [carnosine, β-alanyl-L-histidine]
increase in cell viability: did not lead to any increase in cell viability
